Measurements taken from patent US20250090441A1, “ANTI-CARIES PEPTIDES WITH ANTIMICROBIAL AND REMINERALIZING PROPERTIES AND METHODS THEREOF” (THE UNIVERSITY OF HONG KONG, priority 2023, published 2025).
Converted amounts (≈) assume the structure as drawn. Where a SMILES comes first, the peptide text is derived from it.

Experiments:
[1] = system: Actinomyces naeslundii ATCC 12104; format: cell-based
Procedure: (§1) Common oral pathogenic bacterial strains were selected for this study. Streptococcus mutans ATCC 35668, Streptococcus sobrinus ATCC 33478, Lactobacillus acidophilus ATCC 9224, Lactobacillus rhamnosus ATCC10863, Actinomyces naeslundii ATCC 12104, Enterococcus faecalis ATCC 29212, Porphyromonas gingivalis ATCC 33277, and Actinobacillus actinomycetemcomitans ATCC 29523. All the strains were cultured anaerobically.
(§2) Brain heart infusion (BHI) medium was used for culture of S. mutans, S. sobrinus, L. acidophilus, L. rhamnosus, A. naeslundii, E. faecalis, and A. actinomycetemcomitans, whereas p.g. broth was used for culture of Porphyromonas gingivalis. The standard dilution method in a 96-well microplate was conducted in order to evaluate the antimicrobial efficacy of GAPI. Each well was filled with […] GAPI dilutions. In addition, serial twofold dilutions in concentrations ranging from 1280 μM to 1.25 μM were prepared. A 10 μL bacterial culture (10^6 CFU/mL) was added. Chlorhexidine was used as positive control, and medium was used as negative control. The plates were then anaerobically incubated at 37° C. for 24 h. The absorbance was measured at a wavelength of 660 nm in order to analyze the growth of microorganisms. […] The MBC endpoint was the lowest concentration at which 99.9% of the bacterial population was killed, which thus means the absence of bacteria. The morphology of the bacteria and fungi treated with synthesized peptides was analysed using transmission electron microscopy (TEM) (Philips CM100, Philips/FEI Corporation, Eindhoven, Holland). The sample was prepared following a previous study (Niu et al. 2021d). Copper grids were used to contain the semi-thin sections of bacteria/fungi for examination.

[2] = system: Streptococcus sobrinus ATCC 33478; format: cell-based
Procedure: as §1, §2

[3] = system: Actinobacillus actinomycetemcomitans ATCC 29523; format: cell-based
Procedure: as §1, §2

[4] = system: Lactobacillus rhamnosus ATCC10863; format: cell-based
Procedure: as §1, §2

[5] = system: Lactobacillus acidophilus ATCC 9224; format: cell-based
Procedure: as §1, §2

[6] = system: Enterococcus faecalis ATCC 29212; format: cell-based
Procedure: as §1, §2

[7] = system: Porphyromonas gingivalis ATCC 33277; format: cell-based
Procedure: as §1, §2

[8] = system: Streptococcus mutans ATCC 35668; format: cell-based
Procedure: as §1, §2

[9] = Remineralizing effects on enamel, chemical pH cycling model (SEM-EDS, Micro-CT, XRD); parameters: species or system human; details: 160 μM twice daily, pH cycling 8 days, n = 8
Procedure: Ten enamel slices were cut from extracted sound human molars. Each slice was separated into four blocks. A total of 40 enamel blocks were prepared. Then the surface of the enamel block was half-covered by an acid-resistant varnish. The exposed half was the experimental surface, and the varnished half was the internal control. Before use, all the enamel blocks were sterilized via autoclave (Niu et al. 2021d; Yu et al. 2018).
The pH-cycling procedure (16 h-demineralization at pH 4.5 and 8 h-remineralization at pH 7.0) was performed to enamel blocks for 8 days. The formula for demineralizing/remineralizing solution was employed from a previous study (Yu et al. 2018). The enamel blocks from the same enamel slice were treated twice daily with 160 μM GAPI (GAPI Group), 160 μM gallic acid (GA Group), 160 μM polyphemusin-I (PI Group), and sterile deionized water (Water Group). All enamel blocks after pH cycling were involved in sequent assessments.
The structure of the enamel surface was examined using SEM (n=8 per group) (Niu et al. 2021d). The elemental analysis of enamel surface was conducted using affiliated energy-dispersive X-ray spectroscopy (EDS). The calcium to phosphorus molar ratio was calculated (Niu et al. 2022). The mineral loss and lesion depth on the enamel blocks were assessed using microcomputed tomography (Micro-CT) (1076, SkyScan, Antwerp, Belgium) (n=8 per group) (Niu et al. 2022). The diffraction patterns of the enamel blocks were evaluated using X-ray diffraction analysis (XRD) (Rigaku SmartLab 9 kW, […]) (n=2 per group) (Yu et al. 2018).

CC(C)[C@@H]1NC(=O)[C@H](CCCN=C(N)N)NC(=O)[C@H](Cc2ccccc2)NC(=O)[C@@H](NC(=O)[C@H](Cc2c[nH]c3ccccc23)NC(=O)[C@H](CCCN=C(N)N)NC(=O)[C@H](CCCN=C(N)N)NC(=O)c2cc(O)c(O)c(O)c2)CSSC[C@@H](C(=O)N[C@@H](CCCN=C(N)N)C(=O)O)NC(=O)[C@H](CCCCN)NC(=O)[C@H](CCCN=C(N)N)NC(=O)[C@H](Cc2ccc(O)cc2)NC(=O)[C@@H]2CSSC[C@H](NC1=O)C(=O)N[C@@H](Cc1ccc(O)cc1)C(=O)N[C@@H](CCCN=C(N)N)C(=O)NCC(=O)N[C@@H](Cc1ccccc1)C(=O)N2 [GAPI, Gallic-Acid-Polyphemusin-I] (HELM PEPTIDE1{[O=C(c1cc(O)c(O)c(O)c1)[*:2]].R.R.W.C.F.R.V.C.Y.R.G.F.C.Y.R.K.C.R}$PEPTIDE1,PEPTIDE1,5:R3-18:R3|PEPTIDE1,PEPTIDE1,9:R3-14:R3$$$V2.0)
MBC ([1]; ATCC 12104): 640 µM (≈ 1670 µg/mL) | MIC ([1]; ATCC 12104, anaerobic, 24 h): 160 µM (≈ 417 µg/mL) | MBC ([2]; ATCC 33478): 320 µM (≈ 834 µg/mL) | MIC ([2]; ATCC 33478, anaerobic, 24 h): 80 µM (≈ 209 µg/mL) | MBC ([3]; ATCC 29523): 320 µM (≈ 834 µg/mL) | MIC ([3]; ATCC 29523, anaerobic, 24 h): 160 µM (≈ 417 µg/mL) | MBC ([4]; ATCC 10863): 160 µM (≈ 417 µg/mL) | MIC ([4]; ATCC 10863, anaerobic, 24 h): 20 µM (≈ 52.1 µg/mL) | MBC ([5]; ATCC 9224): 80 µM (≈ 209 µg/mL) | MIC ([5]; ATCC 9224, anaerobic, 24 h): 40 µM (≈ 104 µg/mL) | MBC ([6]; ATCC 29212): 640 µM (≈ 1670 µg/mL) | MIC ([6]; ATCC 29212, anaerobic, 24 h): 160 µM (≈ 417 µg/mL) | MBC ([7]; ATCC 33277): 640 µM (≈ 1670 µg/mL) | MIC ([7]; ATCC 33277, anaerobic, 24 h): 320 µM (≈ 834 µg/mL) | MBC ([8]; ATCC 35668): 160 µM (≈ 417 µg/mL) | MIC ([8]; ATCC 35668, anaerobic, 24 h): 80 µM (≈ 209 µg/mL) | Calcium to phosphate molar ratio ([9]; EDS): 1.81 ± 0.05 | Lesion depth ([9]; Micro-CT): 64 ± 7 μm | Mineral loss ([9]; Micro-CT): 0.89 ± 0.20 gHApcm^−3
